Results published in patent US10294530B2, “Biomarker FOXF2 for gastric cancer” (The Chinese University of Hong Kong, priority 2016, dated 2019).

System: FOXF2 expression
Assay: Demethylation treatment, FOXF2 expression by semi-quantitative PCR
Format: cell-based, human
Description: Semi-quantitative PCR was performed in a total volume of 20 μL reaction containing GeneAmp 1×PCR Buffer II (Applied Biosystems), 2.5 mM MgCl2, 200 μM each of dNTP, 200 nM each of primers, 0.4 U of AmpliTaq Gold DNA polymerase (Applied Biosystems) and 30˜50 ng cDNA. The PCR program started with an initial denaturation at 94° C. for 10 min, followed by 32-35 cycles (94° C. for 30 sec, annealing temperature for 30 sec, and 72° C. for 30 sec) of amplification, with a final extension at 72° C. for 10 min. The PCR bands were visualized under ultraviolet light and photographed. The expression of the target gene was normalized by the expression of house-keeping gene β-actin, which served as an internal control.
Cells were seeded at a density of 1×10^5/100-mm dishes and grew for 24 hours. Cells were then treated with 2 μM 5-aza-2′-deoxycytidine (“5-Aza”) (Sigma-Aldrich) for 5 days. The 5-Aza was replenished every day. The gene expression of FOXF2 was evaluated using semi-quantitative PCR.

Nc1ncn([C@H]2C[C@H](O)[C@@H](CO)O2)c(=O)n1 [5-Aza, 5-aza-2′-deoxycytidine]
FOXF2 expression (AGS, 2 μM 5-Aza for 5 days): restored
FOXF2 expression (MKN28, 2 μM 5-Aza for 5 days): restored
FOXF2 expression (MKN45, 2 μM 5-Aza for 5 days): restored
FOXF2 expression (MKN74): insufficient
FOXF2 expression (NCL-N87, 2 μM 5-Aza for 5 days): restored
FOXF2 expression (SNU719, 2 μM 5-Aza for 5 days): restored
